Results published in US5688485A, “Radiolabelled complexes of ester-substituted diaminethiols” (The DuPont Merck Pharmaceutical Company, priority 1992, dated 1997).
Where two headings read alike, the source gives them in different places.

Legend:
[1] = rhesus monkey, in vivo
Description: Three adult male Rhesus monkeys were used for planar scintigraphic imaging. Anesthesia was induced with ketamine and maintained with 1-2% halothane in a 70/30 mixture of nitrous oxide and oxygen.
All acquisitions were performed using a Picker Digital Dyna Camera and a Siemens MicroDELTA terminal/MAXDELTA system. A high resolution parallel-hole collimator ("HEX48") was mounted on the camera. The general static acquisition protocol was employed, using an acquisition matrix of 128 by 128 pixels, in word mode. Linearity, Z- and uniformity correction as provided for in the camera console, were employed and maintained.
To provide correction for attenuation, a transmission image of each animal was required. This had to be acquired in such a fashion as to permit the location of individual organs to be delineated from an aligned emission image. To do this, an 18-inch commercial refillable flood source (Nuclear Associates, Carle Place, N.Y.) was filled with water on a flat, horizontal surface. It was then loaded with between 20 mCi (740 Mbq) and 30 mCi (1110 Mbq) of Tc99mO4^-, and placed on a rolling cart. A Picker high-resolution collimator was then placed atop the source and the cart positioned under the patient examination table of the camera.
For each animal, a transmission image was acquired immediately prior to the control study injection, in the following fashion: An initial "flood" image was taken of the collimated source with neither the animal nor the examination table in place. Without moving anything else, the examination table, with the anesthetized animal, was placed between the source and the camera. Images were then taken of both the upper and lower portions of the body using a 128×128 pixel matrix in word mode. Table positioning was restricted by the track system so that positioning markers were necessary only for the dimension parallel to the animal's vertical axis.
Without moving the camera, the source was withdrawn and removed from the room. Adjustments to the camera-subject distance were made only by raising or lowering the table. The control compound was then injected and the control study begun. In this way, organs could be identified from the control study and the regions applied to the transmission study to determine attenuation correction factors on a per-organ basis. In addition, an "efficiency" factor was determined from images taken of a small flask containing a measured amount of radioactivity.
Following the injection of Tc-99m labeled materials, images were acquired of each animal using "spot" views over the upper and lower portions of the body with conjugate views (i.e. 180-degree opposed views) for each.
The resulting image data was analyzed by creating regions of interest (ROI's) for each organ and determining the sum of the recorded gamma photons for each organ in each view. From the transmission view, an attenuation correction factor was derived for each organ and the activity in the organ determined by taking the square root of the product of the ROI sums for conjugate views of the organ and then multiplying by the attenuation correction factor for that organ and then by the efficiency factor.
Each animal was imaged with Tc-99m-(L,L)-N,N'-1,2-ethylenediylbiscysteine, diethyl ester in order to serve as its own control. One test isomer was then administered to each of the monkeys. Frequent blood samples were drawn from a peripheral leg vein. Regions of interest were drawn around all pertinent organs and time-activity curves were constructed.

[2] = cited from earlier work
[3] = in words; cited from earlier work

With “anti-Tc-99m-(D,L)-N,N'-1,2-ethylenediylbiscysteine, diethyl ester [Example 3]” the “Biodistribution: Brain” value ([1]; 30 min) was 2.1 percentage of the initial inje, the “Biodistribution: Gall Bladder” value ([1]; 30 min) was 2.7 percentage of the initial inje and the “Biodistribution: Urinary Bladder” value ([1]; 30 min) was 4.2 percentage of the initial inje. The “Biodistribution: Brain” value ([1]; 60 min) was 1.8 percentage of the initial inje, the “Biodistribution: Gall Bladder” value ([1]; 60 min) was 6.4 percentage of the initial inje and the “Biodistribution: Urinary Bladder” value ([1]; 60 min) was 4.0 percentage of the initial inje.
For “Tc-99m-mercaptoacetyltriglycine [Tc-99m-MAG3]”, the “Route / rate of renal elimination” value ([2]; in words) is given as “secreted by the kidneys selectively by tubular secretion and approximately as rapidly as OIH” and the organ specificity ([2]; in words) is given as “less than desired”.
For “syn-Tc-99m-(D,L)-N,N'-1,2-ethylenediylbiscysteine, diethyl ester [Example 2]”, the Renal excretion [1] was “most rapidly excreted”, the “Uptake in other organs / liver activity” value [1] was “low uptake in other organs, especially the gall bladder” and the “Biodistribution: Brain” value ([1]; 30 min) was 3.4 percentage of the initial inje. The “Biodistribution: Gall Bladder” value ([1]; 30 min) was 2.2 percentage of the initial inje, the “Biodistribution: Urinary Bladder” value ([1]; 30 min) was 58 percentage of the initial inje and the “Biodistribution: Brain” value ([1]; 60 min) was 3.0 percentage of the initial inje. For the same compound, the “Biodistribution: Gall Bladder” value ([1]; 60 min) was 6.2 percentage of the initial inje and the “Biodistribution: Urinary Bladder” value ([1]; 60 min) was 74 percentage of the initial inje.
For `O=C(O)CNC(=O)c1ccccc1[123I]` [Example I-123-OIH], the “radiation burden to the patient” value [3] is given as “much lower radiation burden to the patient”.
In the case of `Nc1ccc(C(=O)NCC(=O)O)cc1` [PAH, p-aminohippuric acid], the “removed from the plasma by active secretion into the tubules” value ([2]; in vivo) is given as “approximately 70%”.
In the case of “Tc-99m-diethylenetriamine pentaacetic acid [Tc-99m-DTPA]”, the maximum extraction efficiency ([2]; in vivo) is given as 20-25% and the “Route / rate of renal elimination” value ([2]; in words) is given as “eliminated entirely or nearly entirely by glomerular filtration”.
In the case of “Tc-99m-(L,L)-N,N'-1,2-ethylenediylbiscysteine, diethyl ester [Example 4]”, the “Biodistribution: Brain” value ([1]; 30 min) is reported as 5.8 percentage of the initial inje, the “Biodistribution: Gall Bladder” value ([1]; 30 min) is reported as 10 percentage of the initial inje and the “Biodistribution: Urinary Bladder” value ([1]; 30 min) is reported as 29 percentage of the initial inje. For the same compound, the “Biodistribution: Brain” value ([1]; 60 min) was 5.6 percentage of the initial inje, the “Biodistribution: Gall Bladder” value ([1]; 60 min) was 17 percentage of the initial inje and the “Biodistribution: Urinary Bladder” value ([1]; 60 min) was 42 percentage of the initial inje.
In the case of `O=C(O)CNC(=O)c1ccccc1[131I]` [Example I-131-OIH, I-131-o-iodohippurate], the “radiation burden to the patient” value [3] is given as “significant radiation burden to the patient”, the renal extraction efficiency ([2]; in vivo) is given as 65-80% and the “Route / rate of renal elimination” value ([2]; in words) is given as “rapidly removed from the blood by active tubular secretion”.
With “Tc-99m-(D,D)-N,N'-1,2-ethylenediylbiscysteine, diethyl ester [Example 5]” the “Biodistribution: Brain” value ([1]; 30 min) was 1.7 percentage of the initial inje, the “Biodistribution: Gall Bladder” value ([1]; 30 min) was 5.5 percentage of the initial inje and the “Biodistribution: Urinary Bladder” value ([1]; 30 min) was 5.0 percentage of the initial inje. The “Biodistribution: Brain” value ([1]; 60 min) was 1.4 percentage of the initial inje, the “Biodistribution: Gall Bladder” value ([1]; 60 min) was 5.2 percentage of the initial inje and the “Biodistribution: Urinary Bladder” value ([1]; 60 min) was 15 percentage of the initial inje.
